According to PMC8583417, “Evaluation of the Antimicrobial Efficacy of N-Acetyl-L-Cysteine, Rhamnolipids, and Usnic Acid—Novel Approaches to Fight Food-Borne Pathogens” (International Journal of Molecular Sciences, 2021):

Legend:
[1] = system: S. Enteritidis ATCC 13076; assay: MIC for planktonic cell growth (A625nm); type: cell-based, Salmonella enterica Enteritidis; conditions: for MICPC80: ≥80% inhibition, 24 h
Method: (§1) Ten concentrations of NAC, RLs, and UA were tested to determine the minimum inhibitory concentration for planktonic growth, and subsequently, the six highest concentrations were applied on preformed biofilms to evaluate the biofilm eradication ability of the compounds. MIC was defined as the lowest substance concentration able to inhibit at least 80% of microbial growth (MICPC80 for planktonic cells, MICBC80 for further growth of biofilm cells), inhibit 80% of metabolic activity (MICBM80 for biofilm metabolic activity, MICMPB80 for metabolic activity of preformed biofilm), prevent biofilm formation by at least 80% (MICBF80 for biofilm formation), or reduce a preformed biofilm by at least 80% (MICBR80 for biofilm reduction). The results of MICs are summarized in Table 1 (planktonic cells) and Table 2 (biofilm-associated cells).
(§2) The determination of MICs was performed according to Chlumsky et al.. […] To evaluate planktonic cells growth (MICPC80) and further growth of biofilm cells (MICBC80), the optical density of the content of the microtiter plates was measured spectrophotometrically at 625 nm before and after 24 h (for biofilm formation) of cultivation or before and after additional 20 h incubation with the tested compound (for preformed biofilm). […] To evaluate the inhibition of biofilm formation (MICBF80) and reduction in preformed biofilms (MICBR80), biomass was quantified using crystal violet staining, and its metabolic activity (MICBM80 and MICMPB80) was estimated by using the MTT (thiazyl tetrazolium bromide, Sigma-Aldrich, USA) reduction assay, both measured spectrophotometrically at 595 nm.
(§3) All inhibitions were calculated using the formula of Chlumsky et al. below (Equation (1)):(1) A625(595)nm inhibition (%)=A625(595)nm (control) – A625(595)nm(natural substance)/A625(595)nm (control)× 100 where A625(595)nm (control) is the absorbance of bacterial suspension/biofilm itself, and A625(595)nm(natural substance) is the absorbance of the bacterial suspension/biofilm with the added natural substance (NAC, RLs, and UA). […]

E. coli 683/17 [2] = assay: CLSM analysis, biofilm prevention; type: cell-based, Escherichia coli; conditions: 24 h exposure; for Thickness (µm) subCBM80: substance at subinhibitory concentration, mean ± SD
Method: (§4) Biofilm prevention and removal analyses were performed using previously determined minimum inhibitory and subinhibitory concentrations for metabolic activity (MICBM80, subCBM80; MICMPB80, subCMPB80) of NAC, RLs, and UA specific for each tested strain. Selected concentrations were used to evaluate the inhibition of biofilm formation (biofilm prevention) and the reduction in previously formed biofilms (biofilm removal) for the same set of microorganisms, with the exception of S. Infantis, which was excluded from the analysis due to its inability to form biofilm in the selected microtiter plate. Biofilm prevention and removal were observed using CLSM with specific staining to distinguish between live and membrane-compromised cells. Images were analyzed to evaluate (i). the total volume of the biomass, (ii). ratios of live and membrane-compromised cells, and (iii). to calculate biofilm volume reduction for individual organisms after the respective treatment types. The total biofilm volume was normalized by the area of the well and expressed as an average biofilm thickness. Complete data are provided in Supplementary Materials (Tables S1–S8).
(§5) For both inhibition and reduction of biofilms, overnight cultures from BHI were diluted in TSB + 1% Glc to reach an absorbance of 0.08 to 0.1 at 625 nm. The inoculum (150 µL) was transferred into wells of the 96-well flat-bottomed Ibidiμ-Plate (Ibidi, Gräfelfing, Germany) and mixed with 150 µL of each of the three tested substances in technical quadruplicates, followed by incubation at 37 °C for 24 h. Simultaneously, the prepared bacterial suspensions were inoculated to an additional microtiter plate (200 µL) and allowed to form biofilm overnight (18 h at 37 °C). After the incubation, the content of the well was drained off, and 200 µL of each of the three tested substances was added to the plate, which was then incubated for an additional 20 h. The used concentrations of the substances represented the subinhibitory and minimum inhibitory concentrations for metabolic activity (subCBM80, MICBM80; subCMPB80, MICMPB80). Both setups contained a positive control of the bacterial growth (inoculum mixed with sterile TSB + 1% Glc medium) and a control monitoring microbial contamination (sterile medium). Non-treated wells were used as a positive control for comparison between non-treated and treated biofilm mass.
(§6) Prior to the imaging, the wells were stained with the LIVE/DEAD® BacLight™ Bacterial Viability Kit (Thermo Fisher Scientific, MA, USA) following the manufacturer’s guidelines and Drago et al.. Briefly, equal volumes of SYTO® 9 and propidium iodide were combined with the sterile distilled water to reach a final concentration of […]. The biofilm mass was stained using 300 µL of the staining solution per well followed by incubation at 37 °C in the dark for 15 min. Stained wells were washed once with sterile distilled water, which was then added to each well (300 µL). Images were acquired with an inverted Leica SP5 CLSM using a 1.25× dry objective (WD 3.7 mm, Z-resolution 27 µm, up to 24 Z-stacks per well) to visualize an entire well. Samples were kept at the cultivation conditions (37 °C, 5% CO2, 90% humidity) with an OkoLabs stage top environmental chamber (Oko Labs, PA, USA). Fluorophore excitation lasers and emission bandwidths were as follows: SYTO® 9 (ex/em 485/498 nm) 488 nm excitation, 495 to 550 nm emission collection; propidium iodide (ex/em 535/617 nm) 561 nm excitation, 595 to 650 nm emission collection. The laser beam scanned the visual field at a frequency of 600 Hz. The wells were captured in snapshots of 1024 × 1024 pixels representing the area of 153.76 mm^2.
(§7) All collected images were statistically evaluated to quantify biovolume utilizing the surface estimation procedure described in Parker et al.. […]

E. coli 693/17 [3] = assay: CLSM analysis, biofilm prevention; type: cell-based, Escherichia coli; conditions: 24 h exposure; for Thickness (µm) subCBM80: substance at subinhibitory concentration, mean ± SD
Method: as §4, §5, §6, §7

S. aureus 1241 = assay: MIC for further growth of biofilm cells, preformed biofilm (A625nm); type: cell-based, Staphylococcus aureus; conditions: ≥80% inhibition, 18 h preformed biofilm, 20 h with substance
Method: as §1, §2, §3

E. coli 683/17 [4] = assay: MIC for metabolic activity of preformed biofilm (MTT reduction assay); type: cell-based, Escherichia coli; conditions: for MICMPB80: ≥80% inhibition, 20 h with substance
Method: as §1
(§8) The determination of MICs was performed according to Chlumsky et al.. Briefly, 96-well flat-bottomed microtiter plates were inoculated with 75 µL (for biofilm formation) or 100 µL (for preformed biofilm) of bacterial suspension (A625nm 0.08 to 0.1) in technical triplicates and were then carefully mixed with the dilution series of the test substances (24 h cultivation at 25 °C for S. Infantis, 37 °C for other strains) or were directly cultivated to preform biofilms (18 h). For a positive control of bacterial growth, the inoculum was mixed with a pure sterile medium. Furthermore, the sterile medium was included in the plate as a marker of potential microbial contamination. To evaluate planktonic cells growth (MICPC80) and further growth of biofilm cells (MICBC80), the optical density of the content of the microtiter plates was measured spectrophotometrically at 625 nm before and after 24 h (for biofilm formation) of cultivation or before and after additional 20 h incubation with the tested compound (for preformed biofilm). The difference of A625nm was considered as a measure of the ability of cells to grow in the presence of the tested substances. To evaluate the inhibition of biofilm formation (MICBF80) and reduction in preformed biofilms (MICBR80), biomass was quantified using crystal violet staining, and its metabolic activity (MICBM80 and MICMPB80) was estimated by using the MTT (thiazyl tetrazolium bromide, Sigma-Aldrich, USA) reduction assay, both measured spectrophotometrically at 595 nm.
(§9) All inhibitions were calculated using the formula of Chlumsky et al. below (Equation (1)):(1) A625(595)nm inhibition (%)=A625(595)nm (control) – A625(595)nm(natural substance)/A625(595)nm (control)× 100 where A625(595)nm (control) is the absorbance of bacterial suspension/biofilm itself, and A625(595)nm(natural substance) is the absorbance of the bacterial suspension/biofilm with the added natural substance (NAC, RLs, and UA).
(§10) When the minimum inhibitory concentration could not be determined, the MIC was established as >the highest tested concentration for NAC, RLs, and UA.

E. coli 693/17 [5] = assay: as above; type: cell-based, Escherichia coli
Method: as §1, §8, §9, §10

[6] = substance at its MICBM80, mean ± SD

Compound	MICPC80 [1]	Thickness (µm) MICBM80 (E. coli 683/17 [2]; [6]) [µm]	Thickness (µm) subCBM80 (E. coli 683/17 [2]) [µm]	Thickness (µm) MICBM80 (E. coli 693/17 [3]; [6]) [µm]	Thickness (µm) subCBM80 (E. coli 693/17 [3]) [µm]	MICBC80 (S. aureus 1241) [µg/mL]	MICMPB80 (E. coli 683/17 [4])	MICMPB80 (E. coli 693/17 [5]; ≥80% inhibition, 20 h with substance)	maximal achieved inhibition (MICPC80 not reached) ([1]; within tested concentrations) [%]	maximal achieved inhibition (MICMPB80 not reached) (E. coli 683/17 [4]; within tested concentrations) [%]	maximal achieved inhibition (MICMPB80 not reached) (E. coli 693/17 [5]; within tested concentrations) [%]
CC(=O)N[C@@H](CS)C(=O)O [NAC, N-Acetyl-L-cysteine]	12,500 µg/mL	271 ± 50.7	229 ± 9.9	273 ± 40.8	181 ± 21.9	6250	12,500 µg/mL	12,500 µg/mL	–	–	–
CC(=O)c1c(O)c(C)c(O)c2c1OC1=CC(=O)C(C(C)=O)C(=O)C12C (single isomer, unassigned; (+)) [UA, (+)-usnic acid]	> 31.3 µg/mL	–	269 ± 28.1	–	256 ± 12.6	3.91	> 31.3 µg/mL	–	42	45	20
